One assay concerns the target T1, ALK (Homo sapiens, UniProt Q9UM73).
T1 construct: host or cells: baculovirus expression system
As to the kind of experiment: ALK Kinase Assay (ELISA/TRF, PLC-γ substrate). Type of assay: biochemical. Conditions: read-out: ALK Potency. Put shortly:
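Time-resolved fluorescence ELISA using Eu-N1 PT66 antibody to detect phosphorylated PLC-γ (coated at 10 μg/mL). Enzyme at 30 ng/ml ALK; 15 min incubation, 37° C.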

In another assay the target is T2, JAK2 (Homo sapiens, UniProt O60674).
T2 construct: host or cells: baculovirus expression system
As to the kind of experiment: Recombinant Human JAK2 Kinase Assay (TRF). It counts as biochemical. Particulars: read-out: JAK2 Potency. The method, boiled down: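 Kinase activity of baculovirus-expressed JAK2 is followed on a surface-immobilised biotinylated peptide, with the reaction run for 20 min at room temperature in buffer containing 0.2 μM ATP and manganese. Phosphorylation is read with Eu-N1 PY100 antibody.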

Setting [1] is: ALK kinase inhibition, 1 μM ATP.
Setting [2] is: JAK2 kinase inhibition, 0.2 μM ATP.

Read-outs that look alike come from different tables or passages of the source. A value given as a limit tells only on which side of the number the result lay.

T1 sequence (Q9UM73 19-1620): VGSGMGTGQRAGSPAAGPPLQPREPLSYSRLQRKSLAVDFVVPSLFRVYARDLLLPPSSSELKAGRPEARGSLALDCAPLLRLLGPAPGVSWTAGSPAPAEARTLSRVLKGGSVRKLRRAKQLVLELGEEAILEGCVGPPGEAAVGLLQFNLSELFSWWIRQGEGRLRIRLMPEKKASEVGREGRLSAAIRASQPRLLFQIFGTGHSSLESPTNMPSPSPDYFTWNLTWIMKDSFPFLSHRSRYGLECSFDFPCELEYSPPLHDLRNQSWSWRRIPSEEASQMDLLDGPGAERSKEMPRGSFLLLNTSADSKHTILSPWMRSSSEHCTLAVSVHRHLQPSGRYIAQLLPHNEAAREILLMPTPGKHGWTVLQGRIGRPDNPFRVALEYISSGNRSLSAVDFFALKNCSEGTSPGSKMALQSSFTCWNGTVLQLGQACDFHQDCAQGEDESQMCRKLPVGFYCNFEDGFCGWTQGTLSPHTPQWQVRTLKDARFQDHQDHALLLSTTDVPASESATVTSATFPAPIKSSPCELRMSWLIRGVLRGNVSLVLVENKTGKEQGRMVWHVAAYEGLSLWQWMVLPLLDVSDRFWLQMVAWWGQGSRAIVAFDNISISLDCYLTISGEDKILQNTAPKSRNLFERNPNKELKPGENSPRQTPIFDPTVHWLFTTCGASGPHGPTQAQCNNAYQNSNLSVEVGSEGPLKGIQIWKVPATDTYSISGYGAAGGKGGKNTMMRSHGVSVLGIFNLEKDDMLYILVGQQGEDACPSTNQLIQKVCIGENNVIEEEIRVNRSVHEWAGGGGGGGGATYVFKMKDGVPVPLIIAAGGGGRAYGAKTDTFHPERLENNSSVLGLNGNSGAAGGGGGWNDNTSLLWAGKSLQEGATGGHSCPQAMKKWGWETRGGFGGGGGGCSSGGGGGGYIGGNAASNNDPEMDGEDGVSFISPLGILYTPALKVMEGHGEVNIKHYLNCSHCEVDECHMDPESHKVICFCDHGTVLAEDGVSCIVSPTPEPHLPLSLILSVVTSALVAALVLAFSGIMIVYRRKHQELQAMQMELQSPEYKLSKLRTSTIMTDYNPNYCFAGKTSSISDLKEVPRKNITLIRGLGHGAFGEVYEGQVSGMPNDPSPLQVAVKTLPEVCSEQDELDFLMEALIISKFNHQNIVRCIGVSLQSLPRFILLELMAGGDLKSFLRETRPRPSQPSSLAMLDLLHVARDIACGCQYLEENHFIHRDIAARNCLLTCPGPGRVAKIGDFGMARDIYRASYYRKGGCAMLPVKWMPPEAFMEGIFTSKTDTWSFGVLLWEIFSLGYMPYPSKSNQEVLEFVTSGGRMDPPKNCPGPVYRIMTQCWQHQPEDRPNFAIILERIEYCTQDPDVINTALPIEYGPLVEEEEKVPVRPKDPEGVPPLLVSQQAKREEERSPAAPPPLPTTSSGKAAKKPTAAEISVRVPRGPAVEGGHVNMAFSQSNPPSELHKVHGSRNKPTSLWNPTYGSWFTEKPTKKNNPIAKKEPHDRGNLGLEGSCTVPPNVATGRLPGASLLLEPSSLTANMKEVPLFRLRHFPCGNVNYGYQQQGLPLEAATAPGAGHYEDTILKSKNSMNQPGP
T2 sequence (O60674 whole entry): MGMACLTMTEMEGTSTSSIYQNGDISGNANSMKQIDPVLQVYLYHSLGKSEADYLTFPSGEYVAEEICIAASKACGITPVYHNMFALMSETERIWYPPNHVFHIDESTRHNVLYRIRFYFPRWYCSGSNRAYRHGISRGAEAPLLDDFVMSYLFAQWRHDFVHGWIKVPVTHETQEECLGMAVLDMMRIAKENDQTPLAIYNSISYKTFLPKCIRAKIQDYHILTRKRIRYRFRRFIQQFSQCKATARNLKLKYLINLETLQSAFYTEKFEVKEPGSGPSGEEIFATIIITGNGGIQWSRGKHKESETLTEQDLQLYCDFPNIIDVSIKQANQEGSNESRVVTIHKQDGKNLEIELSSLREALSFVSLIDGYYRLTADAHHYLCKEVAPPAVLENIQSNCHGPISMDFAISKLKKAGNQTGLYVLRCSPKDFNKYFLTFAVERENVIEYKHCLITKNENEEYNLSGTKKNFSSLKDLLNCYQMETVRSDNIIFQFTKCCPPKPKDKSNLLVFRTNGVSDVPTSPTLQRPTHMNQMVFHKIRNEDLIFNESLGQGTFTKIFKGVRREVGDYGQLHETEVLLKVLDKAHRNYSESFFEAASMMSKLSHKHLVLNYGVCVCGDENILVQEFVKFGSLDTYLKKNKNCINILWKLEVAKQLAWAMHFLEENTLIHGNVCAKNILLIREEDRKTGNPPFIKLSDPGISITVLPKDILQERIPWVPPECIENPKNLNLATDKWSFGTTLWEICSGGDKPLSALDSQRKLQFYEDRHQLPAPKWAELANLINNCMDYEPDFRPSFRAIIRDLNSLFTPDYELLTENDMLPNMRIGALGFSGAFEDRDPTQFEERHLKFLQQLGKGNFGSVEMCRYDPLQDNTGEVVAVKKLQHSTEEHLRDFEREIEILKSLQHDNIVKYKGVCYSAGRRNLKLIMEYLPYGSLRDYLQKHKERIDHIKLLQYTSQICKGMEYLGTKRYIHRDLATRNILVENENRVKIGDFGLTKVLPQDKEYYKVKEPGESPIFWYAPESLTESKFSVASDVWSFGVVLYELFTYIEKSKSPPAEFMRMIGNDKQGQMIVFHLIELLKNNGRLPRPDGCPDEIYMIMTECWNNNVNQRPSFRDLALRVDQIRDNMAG

For the compound `COc1cc(C2CCN(CC(N)=O)CC2)ccc1Nc1ncc2ccc(-c3cc(F)ccc3N(C)S(C)(=O)=O)n2n1` [Example 1282, 2-[4-(4-{7-[5-Fluoro-2-(methanesulfonyl-methyl-amino)-phenyl]-pyrrolo[2,1-f][1,2,4]triazin-2-ylamino}-3-methoxy-phenyl)-piperidin-1-yl]-acetamide], the IC50 on ALK (setting [1]) is < 100 nM; on JAK2 (setting [2]) it was 1000 to 10000 nM.
For `CN1CCN(c2ccc(Nc3ncc4ccc(-c5cccc(CN(C)S(C)(=O)=O)c5)n4n3)cc2)CC1` [Example 1048, N-Methyl-N-(3-{2-[4-(4-methyl-piperazin-1-yl)-phenylamino]-pyrrolo[2,1-f][1,2,4]triazin-7-yl}-benzyl)-methanesulfonamide], in that order: 100 to 1000 nM and < 100 nM.
For `COc1cc(Cl)ccc1-c1ccc2cnc(Nc3ccc(N4CCC(C(=O)N5CCN(C)CC5)CC4)cc3)nn12` [Example 484, (1-{4-[7-(4-Chloro-2-methoxy-phenyl)-pyrrolo[2,1-f][1,2,4]triazin-2-ylamino]-phenyl}-piperidin-4-yl)-(4-methyl-piperazin-1-yl)-methanone], in that order: < 100 nM and < 100 nM.
As for `COc1ccc(-c2ccc3cnc(Nc4ccc5c(c4)NC(=O)CC5)nn23)cn1` [Example 979, 7-[7-(6-Methoxy-pyridin-3-yl)-pyrrolo[2,1-f][1,2,4]triazin-2-ylamino]-3,4-dihydro-1H-quinolin-2-one], the IC50 is 1000 to 10000 nM on ALK (setting [1]) and < 100 nM at JAK2 (setting [2]).
For the compound `CC(=O)c1ccccc1-c1ccc2cnc(Nc3ccc(N4CCOCC4)cc3)nn12` [Example 400, 1-{2-[2-(4-Morpholin-4-yl-phenylamino)-pyrrolo[2,1-f][1,2,4]triazin-7-yl]-phenyl}-ethanone], the IC50 at ALK (ALK Kinase Inhibition) was 1000 to 10000 nM; on JAK2 (JAK2 Kinase Inhibition), < 100 nM.
With `COc1ccccc1-c1ccc2cnc(Nc3ccc(C4CCN(C)CC4)c(OC)c3)nn12` [Example 908, [3-Methoxy-4-(1-methyl-piperidin-4-yl)-phenyl]-[7-(2-methoxy-phenyl)-pyrrolo[2,1-f][1,2,4]triazin-2-yl]-amine], the IC50 at ALK (setting [1]) and on JAK2 (setting [2]) was < 100 nM throughout.
For the compound `C[C@H](O)CN1CCC(c2ccc(Nc3ncc4ccc(-c5cccc(N(C)S(C)(=O)=O)c5)n4n3)cc2)CC1` [Example 960, N-[3-(2-{4-[1-((S)-2-Hydroxy-propyl)-piperidin-4-yl]-phenylamino}-pyrrolo[2,1-f][1,2,4]triazin-7-yl)-phenyl]-N-methyl-methanesulfonamide], the results for the IC50 at ALK (setting [1]) and on JAK2 (setting [2]) were 100 to 1000 nM and < 100 nM, respectively.
With `CN1CCC(c2ccc(Nc3ncc4ccc(-c5cccc(S(=O)(=O)NCc6ccccc6)c5)n4n3)cc2)CC1` [Example 904, N-Benzyl-3-{2-[4-(1-methyl-piperidin-4-yl)-phenylamino]-pyrrolo[2,1-f][1,2,4]triazin-7-yl}-benzenesulfonamide], the IC50 on ALK (setting [1]) is 100 to 1000 nM; at JAK2 (setting [2]), < 100 nM.
Regarding `C[C@H](O)CN1CCC(c2ccc(Nc3ncc4ccc(-c5ccc(S(C)(=O)=O)cc5)n4n3)cc2)CC1` [Example 1432, (S)-1-(4-{4-[7-(4-Methanesulfonyl-phenyl)-pyrrolo[2,1-f][1,2,4]triazin-2-ylamino]-phenyl}-piperidin-1-yl)-propan-2-ol], the IC50 on ALK (ALK Kinase Inhibition) and on JAK2 (JAK2 Kinase Inhibition) was < 100 nM in each case.
In the case of `CC(=O)Nc1cccc(Nc2ncc3ccc(-c4cccc(S(=O)(=O)N5CC[C@H](O)C5)c4)n3n2)c1` [Example 884, N-(3-{7-[3-((S)-3-Hydroxy-pyrrolidine-1-sulfonyl)-phenyl]-pyrrolo[2,1-f][1,2,4]triazin-2-ylamino}-phenyl)-acetamide], the figures for the IC50 on ALK (setting [1]) and on JAK2 (setting [2]) were 1000 to 10000 nM and < 100 nM, respectively.
For `Clc1cccc(-c2ccc3cnc(Nc4ccc5c(c4)OCO5)nn23)c1` [Example 150, 1,3-Benzodioxol-5-yl-[7-(3-chloro-phenyl)-pyrrolo[2,1-f][1,2,4]triazin-2-yl]-amine], the IC50 is > 10000 nM at ALK (ALK Kinase Inhibition) and < 100 nM at JAK2 (JAK2 Kinase Inhibition).
On to `COc1ccccc1-c1cc(Br)n2nc(Nc3ccc(N4CCN(C)CC4)cc3)ncc12` [Example 102, [7-Bromo-5-(2-methoxy-phenyl)-pyrrolo[2,1-f][1,2,4]triazin-2-yl]-[4-(4-methyl-piperazin-1-yl)-phenyl]-amine], for which the IC50 on ALK (ALK Kinase Inhibition) was > 10000 nM; on JAK2 (JAK2 Kinase Inhibition), 1000 to 10000 nM.
For the compound `CN1CCN(c2ccc(Nc3ncc4ccc(NCc5cccc([N+](=O)[O-])c5)n4n3)cc2)CC1` [Example 1163, N(2)-[4-(4-Methyl-piperazin-1-yl)-phenyl]-N(7)-(3-nitro-benzyl)-pyrrolo[2,1-f][1,2,4]triazine-2,7-diamine], the IC50 on ALK (setting [1]) is 100 to 1000 nM; at JAK2 (setting [2]), < 100 nM.
For `COc1ccc(-c2ccc3cnc(Nc4cccc(NCC(N)=O)c4)nn23)cn1` [Example 975, 2-{3-[7-(6-Methoxy-pyridin-3-yl)-pyrrolo[2,1-f][1,2,4]triazin-2-ylamino]-phenylamino}-acetamide] the same measures were 1000 to 10000 nM and < 100 nM.
`Clc1cccc(-c2ccc3cnc(Nc4ccc(N5CCC(N6CCOCC6)CC5)cc4)nn23)c1` [Example 336, [7-(3-Chloro-phenyl)-pyrrolo[2,1-f][1,2,4]triazin-2-yl]-[4-(4-morpholin-4-yl-piperidin-1-yl)-phenyl]-amine]: the IC50 is 100 to 1000 nM at ALK (ALK Kinase Inhibition) and < 100 nM at JAK2 (JAK2 Kinase Inhibition).
`COCc1ccccc1-c1ccc2cnc(Nc3ccc(N4CCC(N5CCN(C)CC5)CC4)cc3OC)nn12` [Example 538, [7-(2-Methoxymethyl-phenyl)-pyrrolo[2,1-f][1,2,4]triazin-2-yl]-{2-methoxy-4-[4-(4-methyl-piperazin-1-yl)-piperidin-1-yl]-phenyl}-amine]: the IC50 on ALK (setting [1]) and at JAK2 (setting [2]) was < 100 nM throughout.
Take `CS(=O)(=O)N1Cc2cccc(-c3ccc4cnc(Nc5ccc(C6CN(CC(N)=O)C6)cc5)nn34)c2C1` [Example 582, 2-(3-{4-[7-(2-Methanesulfonyl-2,3-dihydro-1H-isoindol-4-yl)-pyrrolo[2,1-f][1,2,4]triazin-2-ylamino]-phenyl}-azetidin-1-yl)-acetamide]: the results for the IC50 on ALK (setting [1]) and on JAK2 (setting [2]) were 1000 to 10000 nM and < 100 nM, respectively.
As to `CC(C)(C)NS(=O)(=O)c1cccc(-c2ccc3cnc(Nc4ccc5c(c4)NC(=O)C5)nn23)c1` [Example 652, N-tert-Butyl-3-[2-(2-oxo-2,3-dihydro-1H-indol-6-ylamino)-pyrrolo[2,1-f][1,2,4]triazin-7-yl]-benzenesulfonamide], the IC50 at ALK (setting [1]) was 1000 to 10000 nM; on JAK2 (setting [2]), < 100 nM.
For `COc1cc(CN2CCN(C(=O)CNC(=O)OC(C)(C)C)CC2)ccc1Nc1ncc2ccc(-c3ccccc3N(C)S(C)(=O)=O)n2n1` [Example 1239, {2-[4-(4-{7-[2-(Methanesulfonyl-methyl-amino)-phenyl]-pyrrolo[2,1-f][1,2,4]triazin-2-ylamino}-3-methoxy-benzyl)-piperazin-1-yl]-2-oxo-ethyl}-carbamic acid tert-butyl ester], in that order: < 100 nM and 100 to 1000 nM.
For `COc1cc(C2CCN(CC3CCN3C)CC2)ccc1Nc1ncc2ccc(-c3ccccc3N(C)S(C)(=O)=O)n2n1` (racemic) [Example 871, (±)-N-[2-(2-{2-Methoxy-4-[1-(1-methyl-azetidin-2-ylmethyl)-piperidin-4-yl]-phenylamino}-pyrrolo[2,1-f][1,2,4]triazin-7-yl)-phenyl]-N-methyl-methanesulfonamide], in that order: < 100 nM and 1000 to 10000 nM.
For `COc1cc(N2CCCC(N3CCN(S(C)(=O)=O)CC3)C2)ccc1Nc1ncc2ccc(-c3ccccc3OC)n2n1` (stereo not shown) [Example 233, {4-[3-(4-Methanesulfonyl-piperazin-1-yl)-piperidin-1-yl]-2-methoxy-phenyl}-[7-(2-methoxy-phenyl)-pyrrolo[2,1-f][1,2,4]triazin-2-yl]-amine], the IC50 at ALK (ALK Kinase Inhibition) and on JAK2 (JAK2 Kinase Inhibition) was < 100 nM in each case.
For `CN1CCN(c2ccc(Nc3ncc4ccc(-c5ccc(CO)cc5)n4n3)cc2)CC1` [Example 1497, (4-{2-[4-(4-Methyl-piperazin-1-yl)-phenylamino]-pyrrolo[2,1-f][1,2,4]triazin-7-yl}-phenyl)-methanol], the IC50 at ALK (ALK Kinase Inhibition) and on JAK2 (JAK2 Kinase Inhibition) was < 100 nM in each case.
With `CN1CCc2ccc(Nc3ncc4c(-c5ccc(F)cc5)ccn4n3)cc2C1` [Example 728, [5-(4-Fluoro-phenyl)-pyrrolo[2,1-f][1,2,4]triazin-2-yl]-(2-methyl-1,2,3,4-tetrahydro-isoquinolin-7-yl)-amine], the IC50 at ALK (setting [1]) was > 10000 nM; on JAK2 (setting [2]), 1000 to 10000 nM.
For the compound `CS(=O)(=O)c1ccc(-c2ccc3cnc(Nc4ccc5nc(C(F)(F)F)[nH]c5c4)nn23)cc1` [Example 1302, [7-(4-Methanesulfonyl-phenyl)-pyrrolo[2,1-f][1,2,4]triazin-2-yl]-(2-trifluoromethyl-3H-benzimidazol-5-yl)-amine], the IC50 on ALK (setting [1]) is > 10000 nM; on JAK2 (setting [2]) it was < 100 nM.
For `COc1cc(CCN2CCOCC2)ccc1Nc1ncc2ccc(-c3ccccc3OC)n2n1` [Example 492, [2-Methoxy-4-(2-morpholin-4-yl-ethyl)-phenyl]-[7-(2-methoxy-phenyl)-pyrrolo[2,1-f][1,2,4]triazin-2-yl]-amine], in that order: < 100 nM and 100 to 1000 nM.
In the case of `CC(C)(C)NS(=O)(=O)c1cccc(-c2ccc3cnc(Nc4ccc(N5CCOCC5)c(F)c4)nn23)c1` [Example 1395, N-tert-Butyl-3-[2-(3-fluoro-4-morpholin-4-yl-phenylamino)-pyrrolo[2,1-f][1,2,4]triazin-7-yl]-benzenesulfonamide], the IC50 at ALK (ALK Kinase Inhibition) was 100 to 1000 nM; on JAK2 (JAK2 Kinase Inhibition), < 100 nM.

For the origin of these results see patent US8471005B2 (Cephalon, Inc., priority 2008, dated 2013).
